Active and inactive are the calls of the source.
Assays:
[1] = molecular target: T1, Rac GTPase-activating protein 1 (Homo sapiens, UniProt Q9H0H5); assay: blockers of MgcRacGAP-driven Rac1 GTP hydrolysis – biochemical, ADP Hunter fluorescence, primary and confirmatory, confirmation (AID 624330); format: functional
T1 sequence (Q9H0H5 whole entry): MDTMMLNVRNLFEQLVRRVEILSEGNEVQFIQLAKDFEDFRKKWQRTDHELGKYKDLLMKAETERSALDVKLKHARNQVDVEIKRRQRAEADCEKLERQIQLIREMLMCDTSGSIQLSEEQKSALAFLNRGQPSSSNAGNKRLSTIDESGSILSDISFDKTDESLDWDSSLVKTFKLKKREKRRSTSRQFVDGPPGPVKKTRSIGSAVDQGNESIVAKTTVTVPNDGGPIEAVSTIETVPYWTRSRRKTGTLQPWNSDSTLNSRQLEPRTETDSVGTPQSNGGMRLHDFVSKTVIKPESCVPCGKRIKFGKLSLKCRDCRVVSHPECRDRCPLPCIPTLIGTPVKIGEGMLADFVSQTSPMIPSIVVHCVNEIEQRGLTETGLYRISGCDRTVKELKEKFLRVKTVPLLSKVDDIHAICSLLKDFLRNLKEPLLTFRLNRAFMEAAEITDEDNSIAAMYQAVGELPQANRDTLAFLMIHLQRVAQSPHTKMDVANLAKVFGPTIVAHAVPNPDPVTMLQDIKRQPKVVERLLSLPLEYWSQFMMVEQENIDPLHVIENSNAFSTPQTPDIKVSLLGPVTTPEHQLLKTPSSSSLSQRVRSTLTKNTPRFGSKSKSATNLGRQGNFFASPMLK

[2] = Luminescence Cell-Based Dose Retest to Confirm Inhibitors of Cancer Stem Cells. [Related pubchem assays (depositor defined):AID2717, AID2721]; format: functional; settings: Homo sapiens
[3] = molecular target: Cytochrome P450 3A4 (Homo sapiens, UniProt P08684);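 note: CYP3A4 tested as one member of a cytochrome P450 panel screen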
[4] = Trypanosoma cruzi growth suppression in host cells – NIH3T3 host cells, beta-gal luminescence, confirmation (AID 2044); format: functional, cell-based;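 note: intracellular parasites grown in NIH/3T3 mouse fibroblasts as host cells; luminescent beta-galactosidase reporter signal from transgenic T. cruzi replicating inside host cells; inhibitors lower the luminescence signal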
[5] = NIH3T3 cell viability loss – ATP luminescence, mouse fibroblasts, counter-screen, dose response (AID 2010); format: functional, cell-based;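 note: cells exposed to compound for about 90 hours before reading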
[6] = tested on: H4; assay: Luminescence Cell-Based Dose Response HTS to Identify Activators of 5'UTR Stem-Loop Driven Prion Protein mRNA Translation in H4 Neuroglioblastoma Cells. [Related pubchem assays: 1829 (Project Summary), 1814 (Primary HTS)]; format: functional; settings: Homo sapiens
[7] = molecular target: Cytochrome P450 2C19 (Homo sapiens, UniProt P33261); assay: Cytochrome panel assay with activity outcomes. Panel member name: p450-cyp2c19 Compounds with AC50 equal or less than 10 uM are considered active; format: functional
[8] = molecular target: T2, Protein skinhead-1 (Caenorhabditis elegans, UniProt P34707); format: functional
T2 sequence (P34707 whole entry): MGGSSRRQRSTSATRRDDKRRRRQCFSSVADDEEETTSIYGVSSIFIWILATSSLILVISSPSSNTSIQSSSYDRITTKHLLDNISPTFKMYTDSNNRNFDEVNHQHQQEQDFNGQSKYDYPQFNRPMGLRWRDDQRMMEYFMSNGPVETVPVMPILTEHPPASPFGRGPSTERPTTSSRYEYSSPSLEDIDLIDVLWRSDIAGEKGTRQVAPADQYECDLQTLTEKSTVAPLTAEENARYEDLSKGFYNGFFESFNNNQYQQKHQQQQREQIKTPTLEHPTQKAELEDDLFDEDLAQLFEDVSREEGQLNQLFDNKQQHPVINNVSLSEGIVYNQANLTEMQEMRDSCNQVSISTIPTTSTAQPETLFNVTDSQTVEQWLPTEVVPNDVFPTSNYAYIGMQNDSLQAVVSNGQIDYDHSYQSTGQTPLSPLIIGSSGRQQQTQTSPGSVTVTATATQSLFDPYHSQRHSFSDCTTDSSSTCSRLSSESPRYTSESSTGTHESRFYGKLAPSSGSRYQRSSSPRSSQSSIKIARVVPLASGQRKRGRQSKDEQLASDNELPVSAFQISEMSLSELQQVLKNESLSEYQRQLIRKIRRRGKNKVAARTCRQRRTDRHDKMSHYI

[9] = molecular target: T3, Protein RecA (Mycobacterium tuberculosis, UniProt P9WHJ3); assay: Fluorescence Cell-Free Homogeneous Dose Retest to Identify Inhibitors of RecA-Intein Splicing Activity. [Related pubchem assays (depositor defined):AID2097, AID2223, AID489010, AID492950]; format: functional
T3 sequence (P9WHJ3 whole entry): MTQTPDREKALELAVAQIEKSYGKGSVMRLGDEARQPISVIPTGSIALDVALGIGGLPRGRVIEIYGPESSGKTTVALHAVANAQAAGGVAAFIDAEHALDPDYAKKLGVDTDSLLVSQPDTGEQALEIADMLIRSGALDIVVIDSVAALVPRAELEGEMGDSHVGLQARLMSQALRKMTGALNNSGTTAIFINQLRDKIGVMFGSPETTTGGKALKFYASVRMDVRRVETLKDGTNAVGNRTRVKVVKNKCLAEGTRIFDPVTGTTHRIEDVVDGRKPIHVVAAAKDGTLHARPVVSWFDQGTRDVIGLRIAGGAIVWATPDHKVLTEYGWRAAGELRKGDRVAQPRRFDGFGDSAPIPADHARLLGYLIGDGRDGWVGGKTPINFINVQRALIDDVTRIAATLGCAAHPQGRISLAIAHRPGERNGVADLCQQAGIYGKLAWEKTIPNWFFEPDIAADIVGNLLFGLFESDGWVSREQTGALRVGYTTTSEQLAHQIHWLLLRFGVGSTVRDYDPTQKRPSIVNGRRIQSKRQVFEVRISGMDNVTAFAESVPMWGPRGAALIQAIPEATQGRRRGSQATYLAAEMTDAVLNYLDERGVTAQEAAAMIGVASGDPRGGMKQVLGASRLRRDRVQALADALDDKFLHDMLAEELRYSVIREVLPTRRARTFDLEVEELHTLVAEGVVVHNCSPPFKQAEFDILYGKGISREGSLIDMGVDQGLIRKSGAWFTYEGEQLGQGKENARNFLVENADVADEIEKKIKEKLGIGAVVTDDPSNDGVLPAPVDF

[10] = tested on: Streptococcus; assay: GAS UMAA2166 growth inhibition – luminescence, BacTiterGlo, counter-screen for streptokinase expression inhibitor project, dose response (AID 1915); format: functional, organism-based;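 note: potency for reduction of bacterial viability or growth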
[11] = tested on: Streptococcus sp. 'group A'; assay: Streptococcus pyogenes SK(-)GAS viability under kanamycin – luminescence, BacTiterGlo, confirmation, counter-screen for streptokinase expression inhibitor project, dose response (AID 1900); format: functional, organism-based

Chain of Cytochrome P450 2C19 (P33261 whole entry): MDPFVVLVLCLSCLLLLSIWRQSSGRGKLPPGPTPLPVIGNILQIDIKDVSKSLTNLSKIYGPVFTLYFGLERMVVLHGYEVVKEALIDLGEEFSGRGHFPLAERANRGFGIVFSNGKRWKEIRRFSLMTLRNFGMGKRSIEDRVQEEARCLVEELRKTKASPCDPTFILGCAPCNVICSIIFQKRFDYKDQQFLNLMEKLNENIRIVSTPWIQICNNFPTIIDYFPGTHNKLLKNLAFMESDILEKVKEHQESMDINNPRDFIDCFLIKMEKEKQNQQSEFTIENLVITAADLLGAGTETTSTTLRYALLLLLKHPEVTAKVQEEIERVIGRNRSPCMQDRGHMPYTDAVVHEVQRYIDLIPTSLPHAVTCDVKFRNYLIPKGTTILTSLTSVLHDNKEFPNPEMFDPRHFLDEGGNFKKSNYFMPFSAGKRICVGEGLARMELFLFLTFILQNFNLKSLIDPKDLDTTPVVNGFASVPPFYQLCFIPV
Chain of Cytochrome P450 3A4 (P08684 whole entry): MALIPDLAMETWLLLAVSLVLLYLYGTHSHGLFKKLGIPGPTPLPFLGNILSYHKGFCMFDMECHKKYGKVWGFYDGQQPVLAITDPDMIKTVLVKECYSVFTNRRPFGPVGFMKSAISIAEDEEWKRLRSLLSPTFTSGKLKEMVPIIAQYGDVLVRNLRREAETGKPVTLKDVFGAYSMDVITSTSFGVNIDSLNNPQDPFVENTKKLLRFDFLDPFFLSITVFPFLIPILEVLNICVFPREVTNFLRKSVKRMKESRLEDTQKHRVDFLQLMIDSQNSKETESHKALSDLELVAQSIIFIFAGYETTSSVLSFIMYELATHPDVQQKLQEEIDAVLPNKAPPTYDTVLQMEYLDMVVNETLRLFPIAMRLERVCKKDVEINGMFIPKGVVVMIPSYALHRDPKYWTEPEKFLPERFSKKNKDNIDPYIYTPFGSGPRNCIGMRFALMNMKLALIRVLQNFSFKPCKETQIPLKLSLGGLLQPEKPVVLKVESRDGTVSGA

Oc1ccc(/C=C/c2nc3ccccc3nc2O)cc1
IC50 [1]: 31.5 µM (active)

Cc1cccc(-c2nc(C#N)c(NC3CCCCC3)o2)c1
AC50 [2]: 2.45 µM (active)

CC[C@@H]1OC(=O)[C@H](C)[C@H](O[C@@H]2C[C@](C)(OC)[C@H](O)[C@H](C)O2)[C@H](C)[C@H](O[C@@H]2O[C@@H](C)C[C@@H](N(C)C)[C@@H]2O)[C@](C)(O)C[C@H](C)C(=O)[C@H](C)[C@H](O)[C@]1(C)O
AC50 [3]: 12.6 µM (inconclusive)

COc1ccc(CCNC(=O)CN(c2ccccc2OC)S(=O)(=O)c2ccc(C)cc2)cc1
EC50 [4]: 4.73 µM (active)
EC50 [5]: 19.3 µM (active)

Cc1ccc(C)c(S(=O)(=O)N2CCN(C(=O)CCCc3c[nH]c4ccccc34)CC2)c1
EC50 [4]: 4.01 µM (active)
EC50 [5]: > 60 µM (not active)

CCCn1c(C)cc(C(=O)COc2ncnc3sccc23)c1C
EC50 [6]: > 120 µM (not active)

CCOC(=O)C1C(=O)C=C(c2ccc(NS(C)(=O)=O)cc2)CC1c1ccco1 (stereo not drawn)
AC50 [3]: 25.1 µM (inconclusive)

c1ccc(OCCCN2CCCC2)cc1
IC50 [1]: 159 µM (active)

CO[C@@]12C[C@@H](COC(=O)c3cncc(Br)c3)CN(C)[C@H]1Cc1cn(C)c3cccc2c13
AC50 ([7]; read-out: AC50): 7.94 µM (inconclusive)

COc1ccc(/C=C2\SC(=S)N(CCC(=O)N(CCO)Cc3ccccc3)C2=O)cc1OC
EC50 [4]: 3.32 µM (active)
EC50 [5]: > 60 µM (not active)

C=C1C/C(=C\C)C(=O)O[C@@H]2CCN3CC=C(COC(=O)[C@@]1(C)O)[C@H]23
AC50 [7]: inconclusive
AC50 [3]: 12.6 µM (inconclusive)

CC(C)c1ccc(/C=C/C(=O)NC2=NCCS2)cc1
AC50 [2]: 1.99 µM (active)

CCCSc1nc2sc3c(c2c(=O)n1-c1ccc(OC)cc1)CCN(C)C3
EC50 [4]: 0.12 µM (active)
EC50 [5]: > 30 µM (not active)

COCCNC(=O)C1CCN(S(=O)(=O)N2CCC3(CC2)OCCO3)CC1
AC50 ([7]; read-out: AC50): 15.8 µM (inconclusive)

O=[N+]([O-])c1ccc(OCc2cnc(Cl)s2)cc1
IC50 [8]: 50.3 µM (inactive)

O=C(CNCCO)N1CCc2ccccc21
AC50 [3]: 1.41 µM (inconclusive)

Cc1c(-c2ccccc2)sc(N)c1C(=O)N1CCOCC1
IC50 [1]: 41.5 µM (active)

COc1cc(OC)cc(C(=O)N2CCN(Cc3ccc4c(c3)OCO4)CC2)c1
IC50 [1]: 188 µM (active)

COc1cccc(Nc2ncc3nc(-c4cc(F)cc(F)c4)c(=O)n(C[C@H]4CCCO4)c3n2)c1
AC50 [3]: 6.31 µM (inconclusive)

O=C(CN1CCN(S(=O)(=O)c2ccc(Br)cc2)CC1)Nc1ccccc1C(=O)c1ccccc1
EC50 [4]: 1.08 µM (active)
EC50 [5]: > 60 µM (not active)

Cc1cccc(NC(=O)Nc2ccc3c(c2)OCO3)n1
EC50 [6]: 9.72 µM (active)

CCCCc1ccc(NC(=O)CSc2nc(=O)n(CCN(CC)CC)c3c2CCC3)cc1
AC50 [2]: 11.2 µM (active)

Nc1ccc2[nH]cc(CCC(=O)O)c2c1
AC50 [7]: inconclusive

CC(=O)NCCNc1ccnc(-c2ccccc2C)n1
AC50 [3]: 20 µM (inconclusive)

Cc1ccc2cc3cc(C(=O)N4CC(C)CC(C)C4)oc3nc2c1 (stereo not drawn)
IC50 [8]: > 100 µM (inactive)

COc1cc(CCN2C(=O)c3cccc4cccc(c34)C2=O)c(S(=O)(=O)N2CCCCCC2)cc1OC
EC50 [4]: 1.9 µM (active)
EC50 [5]: > 30 µM (not active)

COCCCn1c(=O)c2ccccc2n(Cc2cccc(C)c2)c1=O
IC50 [8]: > 100 µM (inactive)

N#CC1=C(Nc2ccccc2Cl)SC(c2ccccc2O)NC1=O (stereo not drawn)
IC50 [1]: 129 µM (active)

COCCCN=C(S)NC1CC2CCCC(C1)N2Cc1cccs1 (stereo not drawn)
AC50 ([7]; read-out: AC50): 1.26 µM (inconclusive)

COc1ccccc1CN1CCCC2(CCN(C(=O)c3csnn3)CC2)C1
AC50 [3]: 15.8 µM (inconclusive)

Cc1sc(-n2c(C)cc(/C=C3\SC(=S)NC3=O)c2C)c(C#N)c1C
AC50 [2]: 2.5 µM (active)

C=CCN1C(=O)C(CC(=O)Nc2ccc(OCCC)cc2)N(CCCN2CCN(Cc3ccccc3)CC2)C1=S (stereo not drawn)
EC50 [4]: 3.01 µM (active)
EC50 [5]: > 60 µM (not active)

O=C(Nc1cc(-c2ccccc2)n[nH]1)c1ccccc1
IC50 [8]: > 100 µM (inactive)

O=C(C1=C(O)C(=O)N(c2cccc(Cl)c2)C1c1ccccc1[N+](=O)[O-])c1ccccc1 (stereo not drawn)
AC50 [3]: 12.6 µM (inconclusive)

O=C(NC1CONC1=O)OCC(Cl)(Cl)Cl (stereo not drawn)
AC50 [2]: > 195 µM (inactive)

COc1ccccc1N=C(S)NNC(=O)c1c(Cl)c(C)nn1C
AC50 [7]: inconclusive

O=C(c1cc(-c2ccncc2)nc2ccc(Br)cc12)N1CCN(Cc2ccc3c(c2)OCO3)CC1
EC50 [4]: 0.384 µM (active)
EC50 [5]: 54.9 µM (active)

O=C(Nc1ccccc1)c1ccc(N2CCN(c3ccccc3)CC2)c(S(=O)(=O)N2CCOCC2)c1
EC50 [4]: 2.04 µM (active)
EC50 [5]: > 60 µM (not active)

COc1cc(CNC(C)c2ccccc2)cc(Br)c1OCc1ccccc1 (stereo not drawn)
AC50 [2]: 5.92 µM (active)

CCOc1ccc2c(c1)-c1c(ssc1=S)C(C)(C)N2
EC50 [9]: 3.17 µM (active)

COc1ccc(CNc2ncc(-c3ccccc3)n2C)c(OC)c1OC
IC50 [1]: 65.7 µM (active)

Cc1cnc(CNc2ccnc(-c3ccccc3C)n2)cn1
AC50 [3]: 20 µM (inconclusive)

COc1cc(N=Nc2ccc(C)cc2S(N)(=O)=O)c(C)cc1N
IC50 [1]: 76.2 µM (active)

Sc1nnc2sc3ccccc3n12
IC50 [1]: 35.8 µM (active)

COc1ccc(NC2CCCN(C(=O)CCc3scnc3C)C2)cc1 (stereo not drawn)
IC50 [1]: 96.1 µM (active)

CSc1ccccc1C(=O)NCCOc1cccc(C)c1
IC50 [8]: > 100 µM (inactive)

O=C(CN(Cc1ccccc1Cl)C(=O)c1ccc(CN2CCOCC2)o1)NCC1CCCO1 (stereo not drawn)
AC50 ([7]; read-out: AC50): 10 µM (inconclusive)

CCn1cc(C(=O)O)c(=O)c2cc(F)c(N3CCN(S(=O)(=O)c4ccc(NC(C)=O)cc4)CC3)cc21
EC50 [10]: 7.08 µM (active)
EC50 [11]: 5.05 µM (active)

O=C(O)c1ccccc1C(=O)Nc1ccc(Nc2ccccc2)cc1
IC50 [1]: 55.5 µM (active)

Cc1ccc(/C=N/Nc2cc(C)nc(NCc3ccccc3)n2)cc1
AC50 [2]: 6.45 µM (active)

Oc1ccccc1/C=N/NP(=S)(c1ccccc1)c1ccccc1
AC50 [2]: 2.69 µM (active)

O/N=C/c1ccnc(SCc2ccc(Cl)cc2)n1
AC50 [2]: 3.58 µM (active)

From ChEMBL document CHEMBL1201862, “PubChem BioAssay data set” (2004)
